Source: ChEMBL document CHEMBL5236634, “Membrane-Targeting Neolignan-Antimicrobial Peptide Mimic Conjugates to Combat Methicillin-Resistant Staphylococcus aureus (MRSA) Infections” (J Med Chem, 2022)
Values after ≈ are worked out from the molar mass of the structure shown. Active and inactive are the calls of the source. The calls are words filed in the database; no cut-off is given here.

Tests used:
Staphylococcus aureus [1] = experiment: Induction of drug resistance in Staphylococcus aureus ATCC 29213 assessed as increase in MIC at 0.5 times MIC measured after 2 days by CLSI based microdilution method; type: functional, organism-based; conditions: time 2.0 day
[2] = Hemolytic activity in sheep RBC incubated for 1 hr by absorbance based analysis; type: toxicity, cell-based, Ovis aries, Erythrocyte; conditions: sheep red blood cells
Enterococcus faecalis = experiment: Antibacterial activity against Enterococcus faecalis ATCC 29212 assessed as inhibition of bacterial growth incubated for 16 to 20 hrs by CLSI based microdilution method; type: functional; conditions: time 16-20 hrs
Escherichia coli = experiment: Antibacterial activity against Escherichia coli ATCC 25922 assessed as inhibition of bacterial growth incubated for 16 to 20 hrs by CLSI based microdilution method; type: functional; conditions: time 16-20 hrs
Salmonella enterica [3] = experiment: Antibacterial activity against Salmonella enterica 8389 assessed as inhibition of bacterial growth incubated for 16 to 20 hrs by CLSI based microdilution method; type: functional; conditions: time 16-20 hrs
Salmonella enterica [4] = experiment: Antibacterial activity against Salmonella enterica H9812 assessed as inhibition of bacterial growth incubated for 16 to 20 hrs by CLSI based microdilution method; type: functional; conditions: time 16-20 hrs
Micrococcus luteus = experiment: Antibacterial activity against Micrococcus luteus assessed as inhibition of bacterial growth incubated for 16 to 20 hrs by CLSI based microdilution method; type: functional; conditions: time 16-20 hrs
[5] = Selectivity index, ratio of HC50 for hemolytic activity in sheep RBC to MIC for antibacterial activity against Staphylococcus aureus ATCC 29213; type: toxicity; conditions: sheep red blood cells
Staphylococcus aureus [6] = experiment: Antibacterial activity against Staphylococcus aureus ATCC 29213 assessed as inhibition of bacterial growth incubated for 16 to 20 hrs by CLSI based microdilution method; type: functional; conditions: time 16-20 hrs
Cell membrane [7] = experiment: Disruption of membrane integrity in methicillin-resistant Staphylococcus aureus 15 assessed as increase in fluorescence intensity at 32 ug/ml measured immediately by Sytox green based fluorescence method; type: subcellular; conditions: dose 32.0 µg/ml
Cell membrane [8] = experiment: Induction of membrane depolarization in methicillin-resistant Staphylococcus aureus 15 assessed as increase in fluorescence intensity at 32 ug/ml by DiSC3-5 dye based fluorescence method; type: subcellular; conditions: dose 32.0 µg/ml
Staphylococcus aureus [9] = experiment: Inhibition of biofilm formation in methicillin-resistant Staphylococcus aureus 15 at 64 ug/ml incubated for 24 hrs by crystalline violet staining based analysis; type: functional; conditions: dose 64.0 µg/ml
Staphylococcus aureus [10] = experiment: Inhibition of biofilm formation in Staphylococcus aureus ATCC 29213 at 64 ug/ml incubated for 24 hrs by crystalline violet staining based analysis; type: functional; conditions: dose 64.0 µg/ml
Staphylococcus aureus [11] = experiment: Inhibition of biofilm formation in methicillin-resistant Staphylococcus aureus 15 assessed as destruction of formed biofilm at 128 ug/ml incubated for 24 hrs by crystal violet staining based analysis relative to control; type: functional
Staphylococcus aureus [12] = experiment: Bactericidal activity against methicillin-resistant Staphylococcus aureus 15 at 4 to 8 times MIC measured at 24 hrs by time kill assay; type: functional, organism-based

Compound | Activity (Staphylococcus aureus [1]) | HC50 at 1 h [2] | MIC (Enterococcus faecalis) | MIC (Escherichia coli) | MIC (Salmonella enterica [3]) | MIC (Salmonella enterica [4]) | MIC (Micrococcus luteus) | selectivity ratio [5] | MIC (Staphylococcus aureus [6]) | Activity (Cell membrane [7]) | Activity (Cell membrane [8]) | inhibition (Staphylococcus aureus [9]) | inhibition (Staphylococcus aureus [10]) | inhibition at 128 µg/mL (Staphylococcus aureus [11]) | Activity (Staphylococcus aureus [12])
CCn1cc(C(=O)O)c(=O)c2cc(F)c(N3CCNCC3)cc21 | Active | – | – | – | – | – | – | – | – | – | – | – | – | – | –
C=CCc1cccc(Oc2ccc(C(=O)CC)cc2)c1OCCCC[N+](C)(C)CC(=O)NCCCC.[Br-] | – | 1110 µg/mL | 16 µg/mL | 64 µg/mL | 32 µg/mL | 128 µg/mL | 16 µg/mL | 138 | 8 µg/mL | – | – | – | – | – | –
C=CCc1cccc(Oc2ccc(C(=O)CC)cc2)c1OCCC[N+](C)(C)CC(=O)N1CCCC1.[Br-] | – | 526 µg/mL | 32 µg/mL | 128 µg/mL | 64 µg/mL | 64 µg/mL | 32 µg/mL | 32.8 | 16 µg/mL | – | – | – | – | – | –
CC[C@H](C)[C@H](NC(=O)CN)C(=O)NCC(=O)N[C@@H](C)C(=O)N[C@H](C(=O)N[C@@H](CC(C)C)C(=O)N[C@@H](CCCCN)C(=O)N[C@H](C(=O)N[C@@H](CC(C)C)C(=O)N[C@H](C(=O)N[C@H](C(=O)NCC(=O)N[C@@H](CC(C)C)C(=O)N1CCC[C@H]1C(=O)N[C@@H](C)C(=O)N[C@@H](CC(C)C)C(=O)N[C@H](C(=O)N[C@@H](CO)C(=O)N[C@@H](Cc1c[nH]c2ccccc12)C(=O)N[C@H](C(=O)N[C@@H](CCCCN)C(=O)N[C@@H](CCCNC(=N)N)C(=O)N[C@@H](CCCCN)C(=O)N[C@@H](CCCNC(=N)N)C(=O)N[C@@H](CCC(N)=O)C(=O)N[C@@H](CCC(N)=O)C(N)=O)[C@@H](C)CC)[C@@H](C)CC)[C@@H](C)O)[C@@H](C)O)C(C)C)C(C)C | – | – | – | – | – | – | – | – | – | Active | Active | – | – | – | –
C=CCc1cccc(Oc2ccc(C(=O)CC)cc2)c1OCC[N+](C)(C)CC(=O)N1CCOCC1.[Br-] | – | > 1280 µg/mL | 64 µg/mL | 128 µg/mL | 64 µg/mL | 64 µg/mL | 16 µg/mL | > 20 | 64 µg/mL | – | – | – | – | – | –
C=CCc1cccc(Oc2ccc(C(=O)CC)cc2)c1OCC[N+](C)(C)CC(=O)NCCC.[Br-] | – | 634 µg/mL | 32 µg/mL | 128 µg/mL | > 128 µg/mL | 128 µg/mL | 64 µg/mL | 19.8 | 32 µg/mL | – | – | – | – | – | –
CN[C@H](CC(C)C)C(=O)N[C@H]1C(=O)N[C@@H](CC(N)=O)C(=O)N[C@H]2C(=O)N[C@H]3C(=O)N[C@H](C(=O)N[C@H](C(=O)O)c4cc(O)cc(O)c4-c4cc3ccc4O)[C@H](O)c3ccc(c(Cl)c3)Oc3cc2cc(c3O[C@@H]2O[C@H](CO)[C@@H](O)[C@H](O)[C@H]2O[C@H]2C[C@](C)(N)[C@H](O)[C@H](C)O2)Oc2ccc(cc2Cl)[C@H]1O [VANCOMYCIN] | – | – | 1 µg/mL (≈ 0.69 µM) | – | – | – | 2 µg/mL (≈ 1.38 µM) | – | – | – | – | inactive | inactive | 60% | inactive
C=CCc1cccc(Oc2ccc(C(=O)CC)cc2)c1OCCC[N+](C)(C)CC(=O)NCCC.[Br-] | – | > 1280 µg/mL | 64 µg/mL | 64 µg/mL | 64 µg/mL | 32 µg/mL | 64 µg/mL | > 20 | 64 µg/mL | – | – | – | – | – | –
C=CCc1cccc(Oc2ccc(C(=O)CC)cc2)c1OCC[N+](C)(C)CC(=O)NCCCCC.[Br-] | – | 1550 µg/mL | 16 µg/mL | 32 µg/mL | 64 µg/mL | 64 µg/mL | 16 µg/mL | 194 | 8 µg/mL | – | – | – | – | – | –
C=CCc1cccc(Oc2ccc(C(=O)CC)cc2)c1OCCCC[N+](C)(C)CC(=O)N(CCCC)CCCC.[Br-] | – | 776 µg/mL | 16 µg/mL | 32 µg/mL | 32 µg/mL | 64 µg/mL | 32 µg/mL | 388 | 2 µg/mL | – | – | – | – | – | –
Br.C=CCc1cccc(Oc2ccc(C(=O)CC)cc2)c1OCCCSC(=N)N | – | 894 µg/mL | 64 µg/mL | 32 µg/mL | 64 µg/mL | 64 µg/mL | 32 µg/mL | 55.8 | 16 µg/mL | – | – | – | – | – | –
C=CCc1cccc(Oc2ccc(C(=O)CC)cc2)c1OCCC[N+](C)(C)CC(=O)NCC.[Br-] | – | 501 µg/mL | 64 µg/mL | 64 µg/mL | > 128 µg/mL | > 128 µg/mL | 64 µg/mL | 7.8 | 64 µg/mL | – | – | – | – | – | –
C=CCc1cccc(Oc2ccc(C(=O)CC)cc2)c1OCCC[N+](C)(C)CC(=O)N(CC)CC.[Br-] | – | 733 µg/mL | 32 µg/mL | 64 µg/mL | 64 µg/mL | 32 µg/mL | 128 µg/mL | 22.9 | 32 µg/mL | – | – | – | – | – | –
C=CCc1cccc(Oc2ccc(C(=O)CC)cc2)c1OCCCC[N+](C)(C)CC(=O)N1CCOCC1.[Br-] | – | 578 µg/mL | 64 µg/mL | > 128 µg/mL | > 128 µg/mL | > 128 µg/mL | 64 µg/mL | 9 | 64 µg/mL | – | – | – | – | – | –
C=CCc1cccc(Oc2ccc(C(=O)CC)cc2)c1OCCC[N+](C)(C)CC(=O)N(CCC)CCC.[Br-] | – | 854 µg/mL | 16 µg/mL | 64 µg/mL | 64 µg/mL | 128 µg/mL | 32 µg/mL | 53.3 | 16 µg/mL | – | – | – | – | – | –
C=CCc1cccc(Oc2ccc(C(=O)CC)cc2)c1OCCCC[N+](C)(C)CC(=O)N(CCC)CCC.[Br-] | – | 933 µg/mL | 32 µg/mL | 64 µg/mL | 128 µg/mL | 128 µg/mL | 64 µg/mL | 29.1 | 32 µg/mL | – | – | – | – | – | –
C=CCc1cccc(Oc2ccc(C(=O)CC)cc2)c1O | – | 438 µg/mL | 128 µg/mL (≈ 453 µM) | 128 µg/mL (≈ 453 µM) | > 128 µg/mL | > 128 µg/mL | 64 µg/mL (≈ 227 µM) | 3.4 | 128 µg/mL (≈ 453 µM) | – | – | – | – | – | –
C=CCc1cccc(Oc2ccc(C(=O)CC)cc2)c1OCCCC[N+](C)(C)CC(=O)NCCCCCC.[Br-] | – | 642 µg/mL | 16 µg/mL | 32 µg/mL | 64 µg/mL | 32 µg/mL | 64 µg/mL | 160 | 4 µg/mL | – | – | – | – | – | –
C=CCc1cccc(Oc2ccc(C(=O)CC)cc2)c1OCCCC[N+](C)(C)CC(=O)N1CCCC1.[Br-] | – | 579 µg/mL | 16 µg/mL | 64 µg/mL | 128 µg/mL | 128 µg/mL | 32 µg/mL | 36.2 | 16 µg/mL | – | – | – | – | – | –
C=CCc1ccc(O)c(Oc2ccc(C(=O)CC)cc2)c1 | – | > 640 µg/mL | 128 µg/mL (≈ 453 µM) | 128 µg/mL (≈ 453 µM) | > 128 µg/mL | 128 µg/mL (≈ 453 µM) | 64 µg/mL (≈ 227 µM) | > 5 | 128 µg/mL (≈ 453 µM) | – | – | – | – | – | –
C=CCc1cccc(Oc2ccc(C(=O)CC)cc2)c1OCCC[N+](C)(C)CC(=O)NCCCC.[Br-] | – | 507 µg/mL | 16 µg/mL | 32 µg/mL | 128 µg/mL | 64 µg/mL | 32 µg/mL | 63.3 | 8 µg/mL | – | – | – | – | – | –
C=CCc1cccc(Oc2ccc(C(=O)CC)cc2)c1OCCCC[N+](C)(C)CC(=O)NCCC.[Br-] | – | 823 µg/mL | 64 µg/mL | 64 µg/mL | 128 µg/mL | 128 µg/mL | 128 µg/mL | 25.7 | 32 µg/mL | – | – | – | – | – | –
C=CCc1cccc(Oc2ccc(C(=O)CC)cc2)c1OCC[N+](C)(C)CC(=O)N(CC)CC.[Br-] | – | 690 µg/mL | 64 µg/mL | 128 µg/mL | > 128 µg/mL | > 128 µg/mL | 32 µg/mL | 10.8 | 64 µg/mL | – | – | – | – | – | –
C=CCc1cccc(Oc2ccc(C(=O)CC)cc2)c1OCCC[N+](C)(C)CC(=O)NCCCCC.[Br-] | – | 690 µg/mL | 8 µg/mL | 16 µg/mL | 8 µg/mL | > 128 µg/mL | 32 µg/mL | 172 | 4 µg/mL | – | – | – | – | – | –
Br.C=CCc1cccc(Oc2ccc(C(=O)CC)cc2)c1OCCCCSC(=N)N | – | 931 µg/mL | 32 µg/mL | 32 µg/mL | 64 µg/mL | 128 µg/mL | 16 µg/mL | 58.2 | 16 µg/mL | – | – | – | – | – | –
